# Source: PubChem BioAssay AID1745844 (Carcinogenic Potency Database (CPDB), 2022)
# The source made the active and inactive calls. The rule behind the calls is not given here. Numbered stars: 1 amine (or outer) side, 2 acyl side, 3 side chain; on linkers, the order of the positions; unused ones are H or OH. Bridge positions count the residues as written; N and C are the ends. Square brackets hold non-standard residues; d marks the D form. Peptide text beside a SMILES is read from it. I, II: the chains in the order shown. Actinocin(9to1) = Cc1c2oc3c(C)ccc(C(=O)[*:1])c3nc-2c(C(=O)[*:2])c(N)c1=O; NMeV = CN[C@H](C(=O)O)C(C)C; Sar = CNCC(=O)O
# System: rodent lifetime carcinogenesis bioassay, tumor incidence TD50
# Test: chronic cancer bioassays in animals – CPDB, compiled studies (AID 1745844)
smiles,measurement,setting,value
"Cc1c2oc3c(C)ccc(C(=O)N[C@@H]4C(=O)N[C@H](C(C)C)C(=O)N5CCC[C@H]5C(=O)N(C)CC(=O)N(C)[C@@H](C(C)C)C(=O)O[C@@H]4C)c3nc-2c(C(=O)N[C@@H]2C(=O)N[C@H](C(C)C)C(=O)N3CCC[C@H]3C(=O)N(C)CC(=O)N(C)[C@@H](C(C)C)C(=O)O[C@@H]2C)c(N)c1=O (I: T[dV]P[Sar][NMeV] / II: T[dV]P[Sar][NMeV]; ester I:1-I:C, II:1-II:C; linker I:N-II:N via Actinocin(9to1))",TD50,"rat, strain Charles River CD (Sprague-Dawley), females, i.p., site: any site (literature study), lesion: malignant tumor, dosed 26 weeks, study length 78 weeks",0.00121 mg/kg/day
same,TD50,"rat, strain Charles River CD (Sprague-Dawley), females, i.p., site: any site (literature study), lesion: several types, types named in the paper, dosed 26 weeks, study length 78 weeks",0.00145 mg/kg/day
same,TD50,"rat, strain Charles River CD (Sprague-Dawley), females, i.p., site: lung, lesion: adenoma, dosed 26 weeks, study length 78 weeks",0.0501 mg/kg/day
same,TD50,"rat, strain Charles River CD (Sprague-Dawley), females, i.p., site: peritoneum, lesion: sarcoma, dosed 26 weeks, study length 78 weeks",0.00199 mg/kg/day
same,TD50,"rat, strain Charles River CD (Sprague-Dawley), males, i.p., site: all sites, lesion: lymphosarcoma, dosed 26 weeks, study length 78 weeks",0.0201 mg/kg/day
same,TD50,"rat, strain Charles River CD (Sprague-Dawley), males, i.p., site: all sites, lesion: plasmacytoma, dosed 26 weeks, study length 78 weeks",0.0201 mg/kg/day
same,TD50,"rat, strain Charles River CD (Sprague-Dawley), males, i.p., site: any site (literature study), lesion: malignant tumor, dosed 26 weeks, study length 78 weeks",0.000708 mg/kg/day
same,TD50,"rat, strain Charles River CD (Sprague-Dawley), males, i.p., site: any site (literature study), lesion: several types, types named in the paper, dosed 26 weeks, study length 78 weeks",0.000501 mg/kg/day
same,TD50,"rat, strain Charles River CD (Sprague-Dawley), males, i.p., site: liver, lesion: hemangioma, dosed 26 weeks, study length 78 weeks",0.0407 mg/kg/day
same,TD50,"rat, strain Charles River CD (Sprague-Dawley), males, i.p., site: peritoneum, lesion: sarcoma, dosed 26 weeks, study length 78 weeks",0.000769 mg/kg/day
CCN(Cc1cccc(S(=O)(=O)O)c1)c1ccc(C(=C2C=CC(=[N+](CC)Cc3cccc(S(=O)(=O)O)c3)C=C2)c2ccc(O)cc2S(=O)(=O)[O-])cc1,carcinogen call,"mouse, strain C3HeB/FeJ, females, in feed, site: any site (literature study), lesion: malignant tumor, dosed 104 weeks, study length 104 weeks",negative (inactive)
same,carcinogen call,"mouse, strain C3HeB/FeJ, females, in feed, site: any site (literature study), lesion: several types, types named in the paper, dosed 104 weeks, study length 104 weeks",negative (inactive)
same,carcinogen call,"mouse, strain C3HeB/FeJ, females, in feed, site: liver, lesion: hepatocellular adenoma, dosed 104 weeks, study length 104 weeks",negative (inactive)
same,TD50,"mouse, strain C3HeB/FeJ, females, in feed, site: lung, lesion: adenoma, dosed 104 weeks, study length 104 weeks",133000 mg/kg/day (inactive)
same,carcinogen call,"mouse, strain C3HeB/FeJ, males, in feed, site: any site (literature study), lesion: malignant tumor, dosed 104 weeks, study length 104 weeks",negative (inactive)
same,TD50,"mouse, strain C3HeB/FeJ, males, in feed, site: any site (literature study), lesion: several types, types named in the paper, dosed 104 weeks, study length 104 weeks",18100 mg/kg/day (inactive)
same,carcinogen call,"mouse, strain C3HeB/FeJ, males, in feed, site: lung, lesion: adenoma, dosed 104 weeks, study length 104 weeks",negative (inactive)
same,TD50,"rat, strain Osborne-Mendel, females, in feed, site: any site (literature study), lesion: malignant tumor, dosed 104 weeks, study length 104 weeks",46700 mg/kg/day (inactive)
same,TD50,"rat, strain Osborne-Mendel, females, in feed, site: any site (literature study), lesion: several types, types named in the paper, dosed 104 weeks, study length 104 weeks",18500 mg/kg/day (inactive)
same,carcinogen call,"rat, strain Osborne-Mendel, females, in feed, site: liver, lesion: one or several types, types not named, dosed 104 weeks, study length 104 weeks",negative (inactive)
same,carcinogen call,"rat, strain Osborne-Mendel, females, in feed, site: mammary gland, lesion: fibroadenoma, dosed 104 weeks, study length 104 weeks",negative (inactive)
same,carcinogen call,"rat, strain Osborne-Mendel, males, in feed, site: any site (literature study), lesion: malignant tumor, dosed 104 weeks, study length 104 weeks",negative (inactive)
same,carcinogen call,"rat, strain Osborne-Mendel, males, in feed, site: any site (literature study), lesion: several types, types named in the paper, dosed 104 weeks, study length 104 weeks",negative (inactive)
same,carcinogen call,"rat, strain Osborne-Mendel, males, in feed, site: liver, lesion: hepatocellular adenoma, dosed 104 weeks, study length 104 weeks",negative (inactive)
CN(CCc1ccccc1)N=O,TD50,"rat, strain Fischer 344, males, in drinking water, site: esophagus, lesion: several types, types named in the paper, dosed 32 weeks, study length 127 weeks",0.0401 mg/kg/day
same,TD50,"rat, strain Fischer 344, males, in drinking water, site: esophagus, lesion: several types, types named in the paper, dosed 104 weeks, study length 127 weeks",0.0422 mg/kg/day
same,TD50,"rat, strain Fischer 344, males, in drinking water, site: forestomach, lesion: basal-cell carcinoma, dosed 32 weeks, study length 127 weeks",2.57 mg/kg/day
same,TD50,"rat, strain Fischer 344, males, in drinking water, site: forestomach, lesion: basal-cell carcinoma, dosed 104 weeks, study length 127 weeks",0.0422 mg/kg/day
same,TD50,"rat, strain Fischer 344, males, in drinking water, site: forestomach, lesion: basal-cell papilloma, dosed 32 weeks, study length 127 weeks",2.21 mg/kg/day
same,TD50,"rat, strain Fischer 344, males, in drinking water, site: liver, lesion: hyperplastic nodule, dosed 104 weeks, study length 127 weeks",0.184 mg/kg/day
same,carcinogen call,"rat, strain Fischer 344, males, in drinking water, site: tongue, lesion: basal-cell carcinoma, dosed 32 weeks, study length 127 weeks",positive
same,TD50,"rat, strain Fischer 344, males, in drinking water, site: tongue, lesion: basal-cell carcinoma, dosed 104 weeks, study length 127 weeks",0.184 mg/kg/day
same,TD50,"rat, strain Fischer 344, males, in drinking water, site: upper gastrointestinal tract, lesion: several types, types named in the paper, dosed 32 weeks, study length 127 weeks",0.00788 mg/kg/day
same,TD50,"rat, strain Fischer 344, males, in drinking water, site: upper gastrointestinal tract, lesion: several types, types named in the paper, dosed 104 weeks, study length 127 weeks",0.0136 mg/kg/day
Cc1cccc(Nc2cc(Cl)nc(SCC(=O)O)n2)c1C,carcinogen call,"hamster, strain Syrian, MB strain, males, in feed, site: liver, lesion: several types, types named in the paper, dosed 60 weeks, study length 60 weeks",negative (inactive)
same,carcinogen call,"mouse, strain CSb, males, in feed, site: liver, lesion: hepatocellular carcinoma, dosed 53 weeks, study length 63 weeks",positive
same,TD50,"rat, strain F344/DuCrj, males, in feed, site: liver, lesion: several types, types named in the paper, dosed 52 weeks, study length 52 weeks",4.26 mg/kg/day
same,carcinogen call,"rat, strain F344/DuCrj, males, in feed, site: liver, lesion: several types, types named in the paper, dosed 78 weeks, study length 78 weeks",positive
same,TD50,"rat, strain Fischer 344, males, in feed, site: liver, lesion: hepatocellular adenoma, dosed 37 weeks, study length 52 weeks",95.1 mg/kg/day
same,TD50,"rat, strain Fischer 344, males, in feed, site: liver, lesion: hepatocellular adenoma, dosed 37 weeks, study length 104 weeks",190 mg/kg/day
same,TD50,"rat, strain Fischer 344, males, in feed, site: liver, lesion: hepatocellular adenoma, dosed 52 weeks, study length 52 weeks",2.29 mg/kg/day
same,TD50,"rat, strain Fischer 344, males, in feed, site: liver, lesion: hepatocellular adenoma, dosed 52 weeks, study length 104 weeks",84.3 mg/kg/day
same,carcinogen call,"rat, strain Fischer 344, males, in feed, site: liver, lesion: hepatocellular carcinoma, trabecular, dosed 69 weeks, study length 69 weeks",positive
same,TD50,"rat, strain Fischer 344, males, in feed, site: liver, lesion: hepatocellular carcinoma, dosed 37 weeks, study length 104 weeks",92.6 mg/kg/day
same,TD50,"rat, strain Fischer 344, males, in feed, site: liver, lesion: hepatocellular carcinoma, dosed 52 weeks, study length 52 weeks",19.2 mg/kg/day
same,TD50,"rat, strain Fischer 344, males, in feed, site: liver, lesion: hepatocellular carcinoma, dosed 52 weeks, study length 104 weeks",26.8 mg/kg/day
same,carcinogen call,"rat, strain Fischer 344, males, in feed, site: liver, lesion: hepatocellular carcinoma, dosed 65 weeks, study length 65 weeks",positive
same,TD50,"rat, strain Fischer 344, males, in feed, site: liver, lesion: several types, types named in the paper, dosed 37 weeks, study length 104 weeks",60 mg/kg/day
same,carcinogen call,"rat, strain Fischer 344, males, in feed, site: liver, lesion: several types, types named in the paper, dosed 52 weeks, study length 52 weeks",positive
same,TD50,"rat, strain Fischer 344, males, in feed, site: liver, lesion: several types, types named in the paper, dosed 52 weeks, study length 104 weeks",22.9 mg/kg/day
same,carcinogen call,"rat, strain Sprague-Dawley, males, in feed, site: liver, lesion: several types, types named in the paper, dosed 60 weeks, study length 60 weeks",positive
Clc1ccc(Sc2cc(Cl)c(Cl)cc2Cl)cc1,carcinogen call,"rat, strain Wistar, females, in feed, site: liver, lesion: one or several types, types not named, dosed 104 weeks, study length 104 weeks",negative (inactive)
same,carcinogen call,"rat, strain Wistar, females, in feed, site: liver, lesion: one or several types, types not named, dosed 116 weeks, study length 116 weeks",negative (inactive)
same,TD50,"rat, strain Wistar, males, in feed, site: liver, lesion: hepatoma, dosed 116 weeks, study length 116 weeks",4590 mg/kg/day (inactive)
same,carcinogen call,"rat, strain Wistar, males, in feed, site: liver, lesion: one or several types, types not named, dosed 104 weeks, study length 104 weeks",negative (inactive)
CC(=O)CN(N=O)C(=O)NCCCl,TD50,"hamster, strain Syrian Golden, females, by gavage, site: spleen, lesion: all vascular tumors, dosed 43 weeks, study length 75 weeks",0.774 mg/kg/day
same,TD50,"hamster, strain Syrian Golden, males, by gavage, site: spleen, lesion: hemangiosarcoma, dosed 43 weeks, study length 75 weeks",0.216 mg/kg/day
same,TD50,"rat, strain Fischer 344, females, by gavage, site: liver, lesion: one or several types, types not named, dosed 30 weeks, study length 104 weeks",1.36 mg/kg/day
same,TD50,"rat, strain Fischer 344, females, by gavage, site: nervous system, lesion: one or several types, types not named, dosed 30 weeks, study length 104 weeks",4.49 mg/kg/day
same,TD50,"rat, strain Fischer 344, females, in drinking water, site: lung, lesion: one or several types, types not named, dosed 30 weeks, study length 104 weeks",4.49 mg/kg/day
same,TD50,"rat, strain Fischer 344, females, in drinking water, site: nervous system, lesion: one or several types, types not named, dosed 30 weeks, study length 104 weeks",4.49 mg/kg/day
same,TD50,"rat, strain Fischer 344, males, by gavage, site: lung, lesion: one or several types, types not named, dosed 30 weeks, study length 104 weeks",3.14 mg/kg/day
same,TD50,"rat, strain Fischer 344, males, by gavage, site: nervous system, lesion: one or several types, types not named, dosed 30 weeks, study length 104 weeks",0.951 mg/kg/day
same,TD50,"rat, strain Fischer 344, males, in drinking water, site: liver, lesion: one or several types, types not named, dosed 30 weeks, study length 104 weeks",3.14 mg/kg/day
same,TD50,"rat, strain Fischer 344, males, in drinking water, site: lung, lesion: one or several types, types not named, dosed 30 weeks, study length 104 weeks",1.5 mg/kg/day
same,TD50,"rat, strain Fischer 344, males, in drinking water, site: nervous system, lesion: one or several types, types not named, dosed 30 weeks, study length 104 weeks",3.14 mg/kg/day
